Numbers after ± are expanded uncertainties.

The record followed here is the NIST ThermoML archive (doi:10.1016/j.tca.2017.09.024).

For this data set the following is noted: Crystal; DTA.

With `c1ccccc1` [benzene], the Normal melting temperature came out at 5.6 ± 2 °C.

As to `Fc1ccccc1` [fluorobenzene], the Normal melting temperature was -41.9 ± 2 °C.
